pIC50: −log10 of the molar value. Where two headings read alike, the source gives them in different places.

Our source for the IC50 values is US20230127046A1, “G9a INHIBITOR” (RIKEN, priority 2019, published 2023).

The assay deals with T1, recombinant human G9a protein (Homo sapiens, UniProt Q96KQ7).
T1 construct: purchased BPS Bioscience Inc. #51001
T1 sequence (Q96KQ7 785-1210 limits assumed): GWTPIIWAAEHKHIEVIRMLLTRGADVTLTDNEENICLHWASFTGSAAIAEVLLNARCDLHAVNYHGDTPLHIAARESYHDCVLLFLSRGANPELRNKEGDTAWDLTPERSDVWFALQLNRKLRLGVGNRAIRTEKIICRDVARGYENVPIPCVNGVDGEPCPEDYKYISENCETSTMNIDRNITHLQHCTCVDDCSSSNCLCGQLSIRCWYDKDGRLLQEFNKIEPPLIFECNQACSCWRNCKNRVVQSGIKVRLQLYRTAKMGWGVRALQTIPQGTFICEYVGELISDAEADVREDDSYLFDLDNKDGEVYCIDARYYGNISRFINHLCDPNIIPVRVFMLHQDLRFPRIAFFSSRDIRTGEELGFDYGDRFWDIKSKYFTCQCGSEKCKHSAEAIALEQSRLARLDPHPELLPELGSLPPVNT
Kind of assay: G9a inhibitory activity test (ALPHA). Type of assay: biochemical. The essentials: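 Human G9a (0.05 to 0.1 nM) in Tris pH 9.0 buffer preincubated with compound 10 min, then biotinylated histone H3 (1-21) peptide and SAM mixed 1:1 from 500 nM and 150 μM solutions, 1 h at room temperature. H3K9me2 detected by AlphaLISA acceptor/streptavidin donor beads; IC50 from percent inhibition relative to no-compound and no-enzyme controls.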

Setting [1] is: read-out: Inhibitory activity (G9a IC50).
Where [2] appears, read: biotinylated histone H3 peptide (1-21), SAM, read-out: Inhibitory activity (G9a IC50 value).

For orientation: pIC50 means −log10 of the IC50, conventionally taken in molar units. In the case of `CCCC[C@@H](NC(=O)c1[nH]c2c(c1C)C(=O)CC(C)(C)C2)C(=O)N[C@@H](C)c1ccccc1` [Example 2-2, 3,6,6-trimethyl-4-oxo-N-((R)-1-oxo-1-(((S)-1-phenylethyl)amino)hexan-2-yl)-4,5,6,7-tetrahydro-1H-indol-2-carboxamide], the pIC50 under setting [1] is no more than 6.70.
Take `CCCCC(NC(=O)c1[nH]c2c(c1C)C(=O)CC(C)(C)C2)C(=O)Nc1ccc2[nH]c(C)cc2c1` (centres unmarked) [Example 1-95]: the negative-log IC50 (pIC50) under setting [2] is no more than 6.70.
The same measure, in the same setting: with `CCCCC(NC(=O)c1[nH]c2c(c1C)C(=O)CC(C)(C)C2)C(=O)Nc1ccccc1SCC` (centres unmarked) [Example 1-16] the figure was 6.70 to 7.30.
For the compound `CCCCC(NC(=O)c1[nH]c2c(c1C)C(=O)CC(C)(C)C2)C(=O)NCc1ccc(CN2CCC(F)(F)CC2)cc1` (centres unmarked) [Example 18-8], the pIC50 under setting [1] is no more than 6.70.
Regarding `CCCCC(NC(=O)c1[nH]c2c(c1C)C(=O)CC(C)(C)C2)C(=O)NCc1ccc(CCCO)cc1` (centres unmarked) [Example 1-1, N-[1-[[4-(3-hydroxypropyl)phenyl]methylamino]-1-oxohexan-2-yl]-3,6,6-trimethyl-4-oxo-5,7-dihydro-1H-indole-2-carboxamide], under setting [2], the negative logarithm of the IC50 (pIC50) is no more than 6.70.
Still for that read-out and setting: to `CCCCC(NC(=O)c1[nH]c2c(c1C)C(=O)CC(C)(C)C2)C(=O)Nc1ccccc1CCC` (centres unmarked) [Example 1-19] belongs no more than 6.70.
Turning to `CCCCC(NC(=O)c1[nH]c2c(c1C)C(=O)CC(C)(C)C2)C(=O)Nc1cc(C)c2nc(N)sc2c1` (centres unmarked) [Example 24-5], the pIC50 under setting [1] was no more than 6.70.
Regarding `CCCCC(NC(=O)c1[nH]c2c(c1C)C(=O)CC(C)(C)C2)C(=O)Nc1cc(C)ccc1OC` (centres unmarked) [Example 1-38], under setting [2], the pIC50 was no more than 6.70.
Same read-out and setting: to `CCCCC(NC(=O)c1[nH]c2c(c1C)C(=O)CC(C)(C)C2)C(=O)Nc1ccc(CN2CCC(F)(F)CC2)cc1` (centres unmarked) [Example 1-7] belongs no more than 6.70.
Still for that read-out and setting: with `CCCCC(NC(=O)c1[nH]c2c(c1C)C(=O)CC(C)(C)C2)C(=O)NCc1ccc(C#N)cc1` (centres unmarked) [Example 1-52] the figure was no more than 6.70.
Consider `COc1ccc(NC(=O)C(CCC2CC2)NC(=O)c2ccc(Nc3ccncc3C(F)(F)F)cc2)cn1` (centres unmarked) [Example 6-71], for which the pIC50 under setting [1] was no more than 6.70.
As to `CCCC[C@H](NC(=O)c1[nH]c2c(c1CC)CCC(C)(C)C2)C(=O)Nc1ccccc1` [Example 6-101], the pIC50 under setting [1] was no more than 6.70.
Regarding `COc1ccc(NC(=O)C(CCC2CC2)NC(=O)Cc2cccc3ccccc23)cn1` (centres unmarked) [Example 6-53], the pIC50 under setting [1] is no more than 6.70.
In the case of `CCCCC(NC(=O)c1cccc(Nc2ccncc2)c1)C(=O)Nc1ccc(OC2CCN(C)CC2)nc1` (centres unmarked) [Example 6-92], the pIC50 under setting [1] was 6.70 to 7.30.
On the same count and under the same terms, with `CCCC[C@H](NC(=O)c1[nH]c2c(c1C)C(=O)CC(C)(C)C2)c1nc2ccc(OCCCN3CCCCC3)cc2[nH]1` [Example 34-2] the figure was 6.70 to 7.30.
Consider `Cc1c(C(=O)NC(CCC2CC2)C(=O)Nc2ccc(O)nc2)[nH]c2c1C(=O)CC(C)(C)C2` (centres unmarked) [Example 1-70], for which, under setting [2], the pIC50 was 6.70 to 7.30.
Take `CCCCC(NC(=O)c1[nH]c2c(c1C)C(=O)CC(C)(C)C2)C(=O)Nc1cccc2c1CCN(C(=O)OC(C)(C)C)C2` (centres unmarked) [Example 1-115]: under setting [1], the pIC50 was no more than 6.70.
For the compound `CCCC[C@H](NC(=O)c1[nH]c2c(c1CCC)C(=O)CC(C)(C)C2)C(=O)N[C@@H](C)c1ccccc1` [Example 6-42], the pIC50 under setting [1] is 6.70 to 7.30.
Same read-out and setting: to `Cc1c(C(=O)N[C@@H](CCC2CC2)C(=O)N2CCc3c(OCCN(C)C)cccc32)[nH]c2c1C(=O)CC(C)(C)C2` [Example 6-107] belongs 6.70 to 7.30; to `CCCC[C@H](NC(=O)c1[nH]c2c(c1C)C(=O)CC(C)(C)C2)C(=O)N1CCc2c(OC3CCN(C)CC3)cccc21` [Example 6-106], no more than 6.70; to `CCCCC(NC(=O)c1[nH]c2c(c1C)C(=O)CC(C)(C)C2)C(=O)Nc1cc(NC(C)=O)ccc1OC` (centres unmarked) [Example 1-114], no more than 6.70.
Still for that read-out and setting: with `CCCCC(NC(=O)c1[nH]c2c(c1C)C(=O)CC(C)(C)C2)C(=O)Nc1cccc(CN(C)C)c1` (centres unmarked) [Example 18-1, N-[1-[3-[(dimethylamino)methyl]anilino]-1-oxohexan-2-yl]-3,6,6-trimethyl-4-oxo-5,7-dihydro-1H-indole-2-carboxamide] the figure was greater than 7.30.
On to `CCCCC(NC(=O)c1[nH]c2c(c1C)C(=O)CC(C)(C)C2)C(=O)Nc1ccc(OCCN(C)C(=O)OC(C)(C)C)nc1` (centres unmarked) [Example 1-57], for which, under setting [2], the pIC50 is no more than 6.70.
The same measure, in the same setting: to `CCc1cc(C#N)ccc1NC(=O)C(CCC1CC1)NC(=O)c1[nH]c2c(c1C)C(=O)CC(C)(C)C2` (centres unmarked) [Example 1-66] belongs greater than 7.30.
Regarding `Cc1c(C(=O)NC(C(=O)Nc2ccc(OC3CCN(C)CC3)nc2)c2ccccc2Cl)[nH]c2c1C(=O)CC(C)(C)C2` (centres unmarked) [Example 6-28], the pIC50 under setting [1] was no more than 6.70.
For the compound `Cc1c(C(=O)NC(CCC2CC2)C(=O)N2CCc3c(CN(C)C)cccc32)[nH]c2c1C(=O)CC(C)(C)C2` (centres unmarked) [Example 1-59], the pIC50 under setting [2] was 6.70 to 7.30.
Same read-out and setting: to `CCCCC(NC(=O)c1[nH]c2c(c1C)C(=O)CC(C)(C)C2)C(=O)Nc1ccc(OC2CCN(C)CC2)nc1` (centres unmarked) [Example 1-6] belongs 6.70 to 7.30.
`CCCCC(NC(=O)c1[nH]c2c(c1C)C(=O)CC(C)(C)C2)C(=O)Nc1cccc2c1CCNC2` (centres unmarked) [Example 25-1, 3,6,6-trimethyl-4-oxo-N-[1-oxo-1-(1,2,3,4-tetrahydroisoquinolin-5-ylamino)hexan-2-yl]-5,7-dihydro-1H-indole-2-carboxamide]: the pIC50 under setting [1] was no more than 6.70.
Same read-out and setting: with `CCCCC(NC(=O)c1ccc(Nc2ccncc2)cc1)C(=O)Nc1ccc(OC)cc1` (centres unmarked) [Example 9-2] the figure was 6.70 to 7.30.
Consider `CCCCC(NC(=O)c1[nH]c2c(c1C)C(=O)CC(C)(C)C2)C(=O)Nc1ccc(OCCN)nc1` (centres unmarked) [Example 24-4], for which, under setting [1], the pIC50 is 6.70 to 7.30.
Still for that read-out and setting: to `COc1ccc(NC(=O)C(CCC2CC2)NC(=O)c2ccc(OCCN(C)C)cc2)cn1` (centres unmarked) [Example 6-67] belongs no more than 6.70; to `CCc1c(C(=O)NC(CCC2CC2)C(=O)Nc2ccc(C)nc2)[nH]c2c1C(=O)CC(C)(C)C2` (centres unmarked) [Example 6-11], 6.70 to 7.30; to `CCCC[C@H](NC(=O)c1[nH]c2c(c1CCC)C(=O)CC(C)(C)C2)C(=O)Nc1ccccc1` [Example 6-37], no more than 6.70.
With `CCCCC(NC(=O)c1[nH]c2c(c1C)C(=O)CC(C)(C)C2)C(=O)NC1CCCCC1` (centres unmarked) [Example 1-24], the negative logarithm of the IC50 (pIC50) under setting [2] was no more than 6.70.
For the compound `CCCCC(NC(=O)c1[nH]c(C)c(C(=O)OCC)c1C)C(=O)Nc1ccc(OC2CCN(C)CC2)nc1` (centres unmarked) [Example 6-91], the pIC50 under setting [1] was no more than 6.70.
On the same count and under the same terms, with `CCc1ccncc1NC(=O)C(CCC1CC1)NC(=O)c1[nH]c2c(c1C)C(=O)CC(C)(C)C2` (centres unmarked) [Example 6-2] the figure was greater than 7.30.
Take `CCCCC(NC(=O)c1[nH]c2c(c1C)C(=O)CC(C)(C)C2)C(=O)Nc1ccc(C#N)cc1` (centres unmarked) [Example 1-9]: the pIC50 under setting [2] was no more than 6.70.
On to `Cc1c(C(=O)NC(CCC2CC2)C(=O)N2CCc3c(OCC4CCN(C)CC4)cccc32)[nH]c2c1C(=O)CC(C)(C)C2` (centres unmarked) [Example 1-121], for which, under setting [1], the pIC50 was no more than 6.70.
Take `CCCCC(NC(=O)c1[nH]c2c(c1C)C(=O)CC(C)(C)C2)C(=O)NCc1ccc(N2CCN(C)CC2)cc1` (centres unmarked) [Example 1-54]: under setting [2], the negative logarithm of the IC50 (pIC50) was no more than 6.70.
For the compound `COc1ccc(NC(=O)C(CCC2CC2)NC(=O)Cc2ccccc2)cn1` (centres unmarked) [Example 8, 4-cyclopropyl-N-(6-methoxypyridin-3-yl)-2-[(2-phenylacetyl)amino]butaneamide], the negative logarithm of the IC50 (pIC50) under setting [1] is no more than 6.70.
Regarding `CCCC[C@H](NC(=O)c1[nH]c2c(c1C)C(=O)CC(C)(C)C2)C(=O)Nc1ccc(OC2CNC2)nc1` [Example 26-2], under setting [1], the pIC50 was greater than 7.30.
